What was measured:
Erigeron canadensis = assay: Greenhouse herbicidal activity, post-emergence treatment; type: in vivo; conditions: assessment 20 DAT, aqueous SC 8.33 w/v %, scale 0-100
Source text: (§1) The culture containers used were plastic flowerpots containing loamy sand with approximately 3.0% of humus as the substrate. The seeds of the test plants were sown separately for each species.
(§2) For the post-emergence treatment, the test plants were first grown to a height of 3 to 15 cm, depending on the plant habit, and only then treated with the active ingredients which had been suspended or emulsified in water. For this purpose, the test plants were either sown directly and grown in the same containers, or they were first grown separately as seedlings and transplanted into the test containers a few days prior to treatment.
(§3) Depending on the species, the test plants were kept at 10-25° C. or 20-35° C., respectively. The test period extended over 2 to 4 weeks. During this time, the test plants were tended, and their response to the individual treatments was evaluated.
(§4) Evaluation was carried out using a scale from 0 to 100. 100 means no emergence of the test plants, or complete destruction of at least the aerial moieties, and 0 means no damage, or normal course of growth. A good herbicidal activity is given at values of at least 70 and a very good herbicidal activity is given at values of at least 85.
(§5) The abovementioned methods were used to compare, in a greenhouse test, form A according to the invention and, as comparison the compound of formula (I) in amorphous form, in each case formulated as aqueous suspension concentrate (SC; 8.33 w/v %).

Lolium multiflorum = assay: as above; type: in vivo; conditions: assessment 20 DAT, aqueous SC 8.33 w/v %, scale 0-100
Source text: as §1, §2, §3, §4, §5

| SMILES | Damage [%] (Erigeron canadensis; 2 g/ha a.i.) | Damage [%] (Erigeron canadensis; 4 g/ha a.i.) | Damage [%] (Lolium multiflorum; 2 g/ha a.i.) | Damage [%] (Lolium multiflorum; 4 g/ha a.i.) | Damage [%] (Lolium multiflorum; 8 g/ha a.i.) | Damage [%] (Lolium multiflorum; 16 g/ha a.i.) |
| --- | --- | --- | --- | --- | --- | --- |
| COC(=O)C(OC)Oc1ccccc1Oc1cc(-n2c(=O)cc(C(F)(F)F)n(C)c2=O)c(F)cc1Br (stereo not drawn) [amorphous, methyl 2-[2-[2-bromo-4-fluoro-5-[3-methyl-2,6-dioxo-4-(trifluoromethyl)pyrimidin-1-yl]phenoxy]phenoxy]-2-methoxy-acetate] | 30% | 70% | 15% | 25% | 75% | 80% |
| COC(=O)C(OC)Oc1ccccc1Oc1cc(-n2c(=O)cc(C(F)(F)F)n(C)c2=O)c(F)cc1Br (stereo not drawn) [Form A, methyl 2-[2-[2-bromo-4-fluoro-5-[3-methyl-2,6-dioxo-4-(trifluoromethyl)pyrimidin-1-yl]phenoxy]phenoxy]-2-methoxy-acetate] | 60% | 100% | 50% | 70% | 90% | 90% |
